Experimental data reported in patent US9060967B2, “Stable aqueous formulation of (E)-4-carboxystyryl-4-chlorobenzyl sulfone” (ONCONOVA THERAPEUTICS, INC, priority 2010, dated 2015).

Assays:
Type in all cases: physicochemical
[1] = accelerated solid-state stability study of the bulk drug substance
Description: (§1) The physio-chemical properties of ON 01210.Na, as an exemplary efficacious radiation protectant drug, were determined in order to evaluate appropriate formulation approaches for development of a safe, reliable and effective parenteral formulation of this compound and other radioprotective α,β-unsaturated arylsulfones. Evaluation studies included microscopic studies, partition coefficient, pKa, pH solubility studies, pH stability studies under accelerated conditions, solid state characterization of the drug substance, and solid state stability of drug substance under accelerated conditions. […] This drug was reasonably stable in an aqueous environment at biological pH. Therefore, it was determined that ON 01210.Na could be formulated as a shelf stable parenteral formulation.

[2] = octanol:water partition coefficient (preformulation study)
Description: as §1

[3] = pH stability studies under accelerated conditions
Description: as §1

With `O=C([O-])c1ccc(/C=C/S(=O)(=O)Cc2ccc(Cl)cc2)cc1.[Na+]` [ON 01210.Na, (E)-4-Carboxystyryl-4-chlorobenzylsulfone, Sodium Salt] the accelerated solid-state stability [1] was “no evidence of degradation”, the “octanol:water partition coefficient” value [2] was 1.28-2.87 and the degradation rate order [3] was “pseudo-first-order”. The “pH-stability profile, degradation” value ([3]; acidic conditions) was “rapid” and the pH-stability profile ([3]; neutral and biological pH) was “better stability”.
